What was measured:
[1] = Dynamic vapor sorption (DVS); assay type: physicochemical
Protocol: (§1) METHOD A: In Example 5, approximately 5-15 mg of sample was placed into a mesh vapor sorption balance pan and loaded into either a DVS Intrinsic or DVS Advantage dynamic vapor sorption balance by Surface Measurement Systems. The sample was subjected to a ramping profile from 40-90% relative humidity (RH) at 10% increments, maintaining the sample at each step until a stable weight had been achieved (dm/dt 0.004%, minimum step length 30 minutes, maximum step length 500 minutes) at 25° C. After completion of the sorption cycle, the sample was dried using the same procedure to 0% RH and then a second sorption cycle back to 40% RH was carried out. Two cycles were performed. The weight change during the sorption/desorption cycles were plotted, allowing the hygroscopic nature of the sample to be determined. XRPD analysis was then carried out on the residual solid.
as §1, with “B:” for “A:”, “1,” for “5,”, “10-20” for “5-15”, “determined.” for “determined. XRPD analysis was then carried out on the residual solid.”

human T cells [2] = assay: [3H]adenosine uptake in activated human T cells; assay type: cell-based
Source text: Applicant observed that activated human T cells took up [3H]adenosine, and this uptake was reduced in the presence of the selective ENT1 inhibitor dilazep, confirming that ENT1 is the dominant transporter involved in adenosine uptake in T cells.
Human T cells were activated for 2 days in the presence of Compound 1 or dilazep. The cells were then washed and used in a [^3H]adenosine uptake experiment. […] (See FIG. 27A.)

human T cells [3] = assay: T cell proliferation by CFSE dilution in the presence of ATP; assay type: cell-based; settings: human T cells activated in presence of 100 μM ATP, CFSE dilution, read-out: IC50, restoration of T cell proliferation
Protocol: Human T cells were activated in the presence of 100 μM ATP and dilazep or Compound 1 and proliferation was monitored by CarboxyFluoroscein Succinimidyl Ester (CFSE) dilution. […] (See FIG. 27B.)

MDA-MB-231 cells = assay: MDA-MB-231 subcutaneous tumor model in humanized NCG mice; assay type: in vivo, mouse; settings: day 51; Compound 1 30 mg/kg i.p. twice a day; nivolumab 10 mg/kg i.p. every 5 days
Protocol: The anti-tumor therapeutic efficacy of Compound 1 monotherapy, nivolumab monotherapy, and Compound 1-nivolumab combination therapy was assessed in ‘humanized’ mice with subcutaneous tumors resulting from the subcutaneous injection of MDA-MB-231 cells, a human triple-negative breast cancer cell line.
Human cell line xenograft experiments were performed at Transcure (France) and all associated animal procedures were reviewed and approved by the local ethics committee. The experiment was carried out with the NOD-Prkdc^em26cd52Il2rg^em26cd22/NjuCrl immunodeficient mouse strain (NCG from Charles River Laboratories, Wilmington, MA, USA). Four-week-old immunodeficient NCG mice were engrafted with cord-blood-derived human CD34^+ hematopoietic stem and progenitor cells (French Blood Institute, Paris, France) 2 days after chemical myeloablative treatment. Fourteen weeks after cell injection, engraftment level was monitored with the analysis of human CD45^+ cells among total blood leukocytes by flow cytometry (Attune, Life Technologies/Thermo Fisher Scientific, Waltham, MA, USA). […]
All the animals used were monitored daily, checking their clinical signs of distress and body weight and tumors were measured three times a week using an electronic caliper. The tumor volume was determined by applying the formula Length×(Width)^2×0.5. […]

For COc1cc(C(=O)O[C@@H]2CCCOc3cc(cc(OC)c3OC)C(=O)NCCCN3CCCN(CC2)CC3)cc(OC)c1OC, which “Water uptake (DVS)” value ([1]; at 80% RH, second sorption cycle, after likely formation of amorphous material) is on record?
The value was 3.3%.

And the “Water uptake (DVS)” value ([1]; between 40-80% RH, first sorption cycle)?
Its value is 0.9%.

What about the “Hygroscopicity (DVS)” value ([1]; first sorption cycle, 25° C.) of the same compound?
Its value is “slightly hygroscopic”.

And the “Water uptake (DVS)” value ([1]; further uptake between 80-90% RH, first sorption cycle)?
Its value is 3.8%.

With COc1cc(C(=O)O[C@@H]2CCCOc3cc(cc(OC)c3OC)C(=O)NCCCN3CCCN(CC2)CC3)cc(OC)c1OC (single isomer, unassigned) as the compound, how does the “Moisture uptake (DVS)” value ([1]; RH raised to 80% from 10%, 25° C.) read?
Its value is 1.7%.

What about the “Moisture uptake (DVS)” value ([1]; between 0 and 10% RH, 25° C.) of the same compound?
Its value is “about 6.3%”.

Which results are given for COc1cc(C(=O)OCCCN2CCCN(CCCOC(=O)c3cc(OC)c(OC)c(OC)c3)CC2)cc(OC)c1OC [dilazep]?
IC50 (human T cells [2]; Homo sapiens, T-cell, T cells activated 2 days in presence of compound, washed, [3H]adenosine uptake, read-out: IC50, inhibition of uptake of adenosine into human T cells): 1.2 nM; [3H]adenosine uptake by activated human T cells (human T cells [2]; in the presence of the inhibitor): reduced; IC50 (human T cells [3]): 2.4 nM

With “nivolumab [anti-PD-1, reference compound]” as the compound, how does the “Tumor volume compared with vehicle group” value (MDA-MB-231 cells) read?
The value was “not statistically significantly different”.
